Among the data in ChEMBL document CHEMBL2074299, “Hepatic uptake of the novel antifungal agent caspofungin” (Drug Metab Dispos, 2005) are activity and Activity values, retold here.

Holding throughout (type): functional, cell-based
Data set [1] has as its target T1, OCT1 (solute carrier family 22 member 1) (Homo sapiens, UniProt O15245).
T1 sequence (O15245 whole entry): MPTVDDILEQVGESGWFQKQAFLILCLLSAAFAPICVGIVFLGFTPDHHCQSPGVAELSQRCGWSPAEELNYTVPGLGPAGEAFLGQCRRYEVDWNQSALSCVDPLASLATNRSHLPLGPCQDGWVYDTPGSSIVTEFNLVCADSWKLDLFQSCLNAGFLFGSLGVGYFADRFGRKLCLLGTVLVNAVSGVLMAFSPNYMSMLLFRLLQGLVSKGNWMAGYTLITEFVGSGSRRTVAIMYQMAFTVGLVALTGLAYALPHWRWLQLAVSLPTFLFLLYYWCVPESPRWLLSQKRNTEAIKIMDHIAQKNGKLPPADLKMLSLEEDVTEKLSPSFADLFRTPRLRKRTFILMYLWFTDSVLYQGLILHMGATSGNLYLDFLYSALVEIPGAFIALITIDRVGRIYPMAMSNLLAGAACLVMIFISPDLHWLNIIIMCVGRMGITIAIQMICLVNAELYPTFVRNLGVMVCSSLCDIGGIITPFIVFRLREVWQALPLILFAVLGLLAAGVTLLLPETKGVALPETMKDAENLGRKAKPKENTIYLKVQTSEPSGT
As to the kind of experiment: TP_TRANSPORTER: inhibition of Tetraethyl ammonium uptake (Quinidine:100 uM) in OCT1-expressing HeLa cells. On the set-up: scale not given: the % may be the effect or the level left. As to conditions: HeLa cells that express OCT1, probe tetraethyl ammonium, read-out: Activity.

The target of data set [2] is T2, OATP1B1 (solute carrier organic anion transporter family member 1B1) (Homo sapiens, UniProt Q9Y6L6).
T2 sequence (Q9Y6L6 whole entry): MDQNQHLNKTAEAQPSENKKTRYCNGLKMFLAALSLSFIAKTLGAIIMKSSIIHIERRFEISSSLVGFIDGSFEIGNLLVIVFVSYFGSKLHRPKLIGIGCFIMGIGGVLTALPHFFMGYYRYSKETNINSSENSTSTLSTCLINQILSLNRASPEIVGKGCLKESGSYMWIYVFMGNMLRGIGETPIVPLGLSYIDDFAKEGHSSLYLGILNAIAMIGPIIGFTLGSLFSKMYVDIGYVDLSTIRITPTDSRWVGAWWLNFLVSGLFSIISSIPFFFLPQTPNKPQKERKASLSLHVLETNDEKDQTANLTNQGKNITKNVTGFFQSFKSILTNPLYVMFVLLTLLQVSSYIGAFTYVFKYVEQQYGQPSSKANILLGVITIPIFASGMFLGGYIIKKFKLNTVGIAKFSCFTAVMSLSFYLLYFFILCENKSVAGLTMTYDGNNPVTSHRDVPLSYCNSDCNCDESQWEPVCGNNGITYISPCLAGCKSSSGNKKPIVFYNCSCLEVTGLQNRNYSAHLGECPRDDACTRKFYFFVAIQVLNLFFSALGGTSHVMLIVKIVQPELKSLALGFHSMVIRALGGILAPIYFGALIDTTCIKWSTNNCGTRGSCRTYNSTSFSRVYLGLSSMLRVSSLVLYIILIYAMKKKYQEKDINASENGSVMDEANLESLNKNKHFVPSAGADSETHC
As to the kind of experiment: TP_TRANSPORTER: inhibition of estradiol-17beta-D-glucuronide uptake (Lovastatin:10 uM) in OATP1B1-expressing HeLa cells. The arrangement: scale not given: the % may be the effect or the level left. The note with it: HeLa cells that express OATP1B1, probe estradiol-17beta-D-glucuronide, read-out: Activity.

The target of data set [3] is T3, Solute carrier family 22 member 6 (Homo sapiens, UniProt Q4U2R8).
T3 sequence (Q4U2R8 whole entry): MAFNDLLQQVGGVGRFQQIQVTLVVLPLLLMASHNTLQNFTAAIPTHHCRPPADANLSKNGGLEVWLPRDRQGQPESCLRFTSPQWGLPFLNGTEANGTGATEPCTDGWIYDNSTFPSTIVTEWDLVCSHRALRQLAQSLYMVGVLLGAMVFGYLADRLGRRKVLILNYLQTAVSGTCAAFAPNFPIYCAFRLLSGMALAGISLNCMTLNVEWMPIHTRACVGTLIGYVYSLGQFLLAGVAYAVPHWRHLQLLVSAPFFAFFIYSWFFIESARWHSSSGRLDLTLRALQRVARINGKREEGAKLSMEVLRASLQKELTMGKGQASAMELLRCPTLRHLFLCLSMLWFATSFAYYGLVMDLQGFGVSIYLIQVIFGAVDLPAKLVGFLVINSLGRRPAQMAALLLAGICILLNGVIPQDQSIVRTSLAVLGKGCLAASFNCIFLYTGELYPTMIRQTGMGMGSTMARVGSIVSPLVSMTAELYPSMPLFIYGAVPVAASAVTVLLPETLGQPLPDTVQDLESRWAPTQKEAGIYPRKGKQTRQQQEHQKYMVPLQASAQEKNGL
As to the kind of experiment: TP_TRANSPORTER: inhibition of p-amino hippurate uptake (Indomethacin:100 uM) in OAT1-expressing HeLa cells. On the set-up: scale not given: the % may be the effect or the level left.

Data set [4] addresses T4, Solute carrier organic anion transporter family member 1B3 (Homo sapiens, UniProt Q9NPD5).
T4 sequence (Q9NPD5 whole entry): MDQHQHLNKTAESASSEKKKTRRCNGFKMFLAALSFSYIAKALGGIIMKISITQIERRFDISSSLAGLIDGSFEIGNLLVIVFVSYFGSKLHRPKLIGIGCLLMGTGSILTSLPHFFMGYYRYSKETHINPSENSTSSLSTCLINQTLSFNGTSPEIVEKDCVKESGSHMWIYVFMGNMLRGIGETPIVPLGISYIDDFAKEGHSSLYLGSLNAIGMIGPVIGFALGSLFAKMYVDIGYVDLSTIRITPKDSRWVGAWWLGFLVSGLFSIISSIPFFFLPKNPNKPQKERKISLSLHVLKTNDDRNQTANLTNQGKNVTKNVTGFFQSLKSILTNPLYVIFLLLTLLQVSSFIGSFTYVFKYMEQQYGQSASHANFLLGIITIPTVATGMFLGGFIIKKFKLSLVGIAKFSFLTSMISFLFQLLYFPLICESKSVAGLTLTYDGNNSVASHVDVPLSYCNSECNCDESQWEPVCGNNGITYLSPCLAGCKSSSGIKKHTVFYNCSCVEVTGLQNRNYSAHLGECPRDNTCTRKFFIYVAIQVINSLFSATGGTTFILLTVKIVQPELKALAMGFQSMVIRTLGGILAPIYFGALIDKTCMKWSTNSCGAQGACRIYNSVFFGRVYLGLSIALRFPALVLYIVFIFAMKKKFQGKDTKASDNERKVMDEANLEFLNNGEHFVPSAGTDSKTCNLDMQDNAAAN
The data set is described as follows: TP_TRANSPORTER: uptake in OATP1B3-expressing Tet-on HeLa cells.

Data set [5] deals with ATP-dependent translocase ABCB1 (Homo sapiens, UniProt P08183). As to the kind of experiment: TP_TRANSPORTER: cell accumulation of vinblastine in KB-V1 cells.
Data set [6] deals with T5, Solute carrier organic anion transporter family member 1B1 (Homo sapiens, UniProt Q9Y6L6).
T5 sequence (Q9Y6L6 whole entry): T2 sequence (Q9Y6L6 whole entry)
As to the kind of experiment: TP_TRANSPORTER: uptake in OATP1B1-expressing Tet-on HeLa cells.

In data set [7] the target is T1, OCT1 (solute carrier family 22 member 1). The data set is described as follows: TP_TRANSPORTER: inhibition of Tetraethyl ammonium uptake (Caspofungin:100 uM) in OCT1-expressing HeLa cells. As to conditions: HeLa cells that express OCT1, probe tetraethyl ammonium, read-out: Activity. The arrangement: scale not given: the % may be the effect or the level left.
In data set [8] the target is T5, Solute carrier organic anion transporter family member 1B1. As to the kind of experiment: TP_TRANSPORTER: inhibition of estradiol-17beta-D-glucuronide uptake (Caspofungin:100 uM) in OATP1B1-expressing HeLa cells. The arrangement: scale not given: the % may be the effect or the level left.
For data set [9], the target named is T3, Solute carrier family 22 member 6. The data set is described as follows: TP_TRANSPORTER: inhibition of p-amino hippurate uptake (Caspofungin:100 uM) in OAT1-expressing HeLa cells. On the set-up: scale not given: the % may be the effect or the level left.
In data set [10] the target is T6, NTCP (hepatic sodium/bile acid cotransporter) (Homo sapiens, UniProt Q14973).
T6 sequence (Q14973 whole entry): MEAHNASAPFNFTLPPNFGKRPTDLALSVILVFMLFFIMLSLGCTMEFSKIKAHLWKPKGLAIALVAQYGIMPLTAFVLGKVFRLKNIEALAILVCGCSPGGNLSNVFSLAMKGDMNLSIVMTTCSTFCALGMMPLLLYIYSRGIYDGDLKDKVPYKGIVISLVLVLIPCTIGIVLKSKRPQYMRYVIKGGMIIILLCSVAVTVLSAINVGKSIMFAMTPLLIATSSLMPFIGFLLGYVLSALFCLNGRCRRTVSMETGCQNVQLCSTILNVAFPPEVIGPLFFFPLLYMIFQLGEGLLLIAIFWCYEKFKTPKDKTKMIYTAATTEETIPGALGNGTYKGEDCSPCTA
The data set is described as follows: TP_TRANSPORTER: inhibition of Taurocholate uptake (Caspofungin:100 uM) in NTCP-expressing HeLa cells. As to conditions: HeLa cells that express NTCP, probe taurocholate, read-out: Activity. On the set-up: scale not given: the % may be the effect or the level left.

Data set [11] has as its target T6, NTCP (hepatic sodium/bile acid cotransporter). As to the kind of experiment: TP_TRANSPORTER: inhibition of Taurocholate uptake (Ursodeoxycholate:10 micro;M) in NTCP-expressing HeLa cells. On the set-up: scale not given: the % may be the effect or the level left. The note with it: HeLa cells that express NTCP, probe taurocholate, read-out: Activity.

Sequence of ATP-dependent translocase ABCB1 (P08183 whole entry): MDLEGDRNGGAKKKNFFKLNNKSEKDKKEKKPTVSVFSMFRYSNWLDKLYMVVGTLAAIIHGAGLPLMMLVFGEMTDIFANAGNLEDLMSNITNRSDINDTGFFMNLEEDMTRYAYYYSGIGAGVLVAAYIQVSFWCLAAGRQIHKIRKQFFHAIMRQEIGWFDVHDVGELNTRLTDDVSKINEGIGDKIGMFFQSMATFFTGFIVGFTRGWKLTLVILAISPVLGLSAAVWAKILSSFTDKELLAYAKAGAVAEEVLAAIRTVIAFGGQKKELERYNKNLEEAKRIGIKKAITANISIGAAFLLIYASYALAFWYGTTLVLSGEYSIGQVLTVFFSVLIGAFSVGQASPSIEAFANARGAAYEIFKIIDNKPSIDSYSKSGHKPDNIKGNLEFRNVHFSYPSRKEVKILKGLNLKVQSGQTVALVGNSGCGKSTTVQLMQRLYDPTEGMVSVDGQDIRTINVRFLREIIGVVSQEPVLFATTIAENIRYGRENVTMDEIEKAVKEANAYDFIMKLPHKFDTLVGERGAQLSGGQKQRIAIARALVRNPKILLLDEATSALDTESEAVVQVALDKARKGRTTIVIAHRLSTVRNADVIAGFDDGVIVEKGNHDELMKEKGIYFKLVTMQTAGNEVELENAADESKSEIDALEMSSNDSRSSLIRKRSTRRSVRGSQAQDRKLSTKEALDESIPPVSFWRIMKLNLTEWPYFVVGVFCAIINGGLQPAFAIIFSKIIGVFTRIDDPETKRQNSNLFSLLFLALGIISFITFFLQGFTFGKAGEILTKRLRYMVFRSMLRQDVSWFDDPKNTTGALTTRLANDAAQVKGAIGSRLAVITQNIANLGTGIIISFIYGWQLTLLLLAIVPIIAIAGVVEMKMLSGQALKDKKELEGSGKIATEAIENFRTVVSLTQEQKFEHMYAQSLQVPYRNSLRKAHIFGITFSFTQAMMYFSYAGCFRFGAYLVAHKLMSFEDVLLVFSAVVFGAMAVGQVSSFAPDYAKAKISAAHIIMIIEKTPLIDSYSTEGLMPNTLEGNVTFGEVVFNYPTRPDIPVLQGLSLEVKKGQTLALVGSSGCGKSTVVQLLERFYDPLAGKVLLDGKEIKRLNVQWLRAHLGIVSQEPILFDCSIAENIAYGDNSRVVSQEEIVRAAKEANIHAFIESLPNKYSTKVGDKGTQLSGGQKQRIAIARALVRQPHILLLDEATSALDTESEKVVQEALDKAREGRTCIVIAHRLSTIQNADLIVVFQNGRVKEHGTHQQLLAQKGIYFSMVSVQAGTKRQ

In the case of `C=C[C@H]1C[N@@]2CC[C@H]1C[C@@H]2[C@@H](O)c1ccnc2ccc(OC)cc12` [QUINIDINE], the activity at 100 µM in data set [1] turned out to be 20%.
Consider `CC[C@H](C)C(=O)O[C@H]1C[C@@H](C)C=C2C=C[C@H](C)[C@H](CC[C@@H]3C[C@@H](O)CC(=O)O3)[C@H]21` [LOVASTATIN], for which the activity at 10 µM in data set [2] stood at 40%.
As to `COc1ccc2c(c1)c(CC(=O)O)c(C)n2C(=O)c1ccc(Cl)cc1` [INDOMETHACIN], the Activity in data set [3] is reported as 20%.
Take `CC[C@H](C)C[C@H](C)CCCCCCCCC(=O)N[C@H]1C[C@@H](O)[C@@H](NCCN)NC(=O)[C@@H]2[C@@H](O)CCN2C(=O)[C@H]([C@H](O)CCN)NC(=O)[C@H]([C@H](O)[C@@H](O)c2ccc(O)cc2)NC(=O)[C@@H]2C[C@@H](O)CN2C(=O)[C@H]([C@@H](C)O)NC1=O` [CASPOFUNGIN]: the Activity result in data set [4] was “is not a substrate [-]”; in [5] it was “inhibitor [+]”; in data set [6], “substrate [+]”; in data set [8], 5%; in data set [9], 40%. Further, the activity at 100 µM was found to be 30% in data set [7] and 10% in [10].
For the molecule `C[C@H](CCC(=O)O)[C@H]1CC[C@H]2[C@@H]3[C@@H](O)C[C@@H]4C[C@H](O)CC[C@]4(C)[C@H]3CC[C@]12C` [URSODIOL], the activity at 10 µM in [11] turned out to be 30%.
